Molecular target: T1, HopAO1 (Pseudomonas syringae group genomosp. 3, UniProt Q79LY0)
T1 construct: gene hopD2; full-length, N-terminal 6xHis (pMCSG57-hopAO1, DNASU), E. coli BL21-CodonPlus(DE3)-RIL
Assay: in vitro phytate degradation
Type: biochemical

T1 sequence (Q79LY0 whole entry): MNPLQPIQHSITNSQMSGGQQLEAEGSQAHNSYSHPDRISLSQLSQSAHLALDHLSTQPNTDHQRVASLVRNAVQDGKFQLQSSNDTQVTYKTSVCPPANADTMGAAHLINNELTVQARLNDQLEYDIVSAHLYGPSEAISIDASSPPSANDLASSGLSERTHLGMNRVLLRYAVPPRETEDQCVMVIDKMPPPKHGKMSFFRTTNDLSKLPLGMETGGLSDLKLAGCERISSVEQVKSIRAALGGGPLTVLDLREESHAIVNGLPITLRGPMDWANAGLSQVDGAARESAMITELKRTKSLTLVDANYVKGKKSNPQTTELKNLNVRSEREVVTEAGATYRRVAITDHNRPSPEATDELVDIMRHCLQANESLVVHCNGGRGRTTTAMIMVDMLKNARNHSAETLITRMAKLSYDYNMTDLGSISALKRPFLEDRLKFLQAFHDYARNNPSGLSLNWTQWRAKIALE

O=P(O)(O)O[C@H]1[C@H](OP(=O)(O)O)[C@@H](OP(=O)(O)O)[C@H](OP(=O)(O)O)[C@@H](OP(=O)(O)O)[C@H]1OP(=O)(O)O [InsP6]
in vitro phytate degradation: HopAO1 degraded phytate in vitro but, in contrast to XopH, to lower phosphorylated
